PubChem BioAssay AID588774 (The Scripps Research Institute Molecular Screening Center, 2011)
Activity calls are given as the source filed them.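 How the source made its calls: active means target enzyme inhibited at least 50% at a set dose, and selective over every off-target enzyme by a set factor; inactive means weaker inhibition or too little selectivity.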

How the values were obtained:
[1] = pPAFAH inhibition and serine hydrolase selectivity, SAR follow-up, selectivity assay for pPAFAH inhibitor project, biochemical, gel-based, FP-Rh fluorescence, complex proteome, SAR compounds (AID 588774); settings: gel-based competitive ABPP, at 10 µM;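 on inhibition: 0% = DMSO-only band intensity and 100% = blank gel background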
ABHD3 = experiment: as above; settings: gel-based competitive ABPP, at 10 µM, stronger effect = higher value
ABHD4 = ABHD4 (UniProt Q8VD66); experiment: as above; settings: gel-based competitive ABPP, stronger effect = higher value
ABHD4, sequence (Q8VD66 whole entry, looked up): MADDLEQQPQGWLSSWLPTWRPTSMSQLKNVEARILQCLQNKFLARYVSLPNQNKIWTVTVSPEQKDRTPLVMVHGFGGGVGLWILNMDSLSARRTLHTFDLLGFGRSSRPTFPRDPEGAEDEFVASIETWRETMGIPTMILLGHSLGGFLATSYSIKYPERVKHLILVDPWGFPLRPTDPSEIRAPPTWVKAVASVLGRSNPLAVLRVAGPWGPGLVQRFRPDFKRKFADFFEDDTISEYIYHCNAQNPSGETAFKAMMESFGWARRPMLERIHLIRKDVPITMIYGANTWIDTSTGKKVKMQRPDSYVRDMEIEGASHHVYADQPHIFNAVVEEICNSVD

ABHD6 = experiment: as above; settings: gel-based competitive ABPP, stronger effect = higher value
FAAH = experiment: as above; settings: gel-based competitive ABPP, stronger effect = higher value
LYPLA1 = experiment: as above; settings: gel-based competitive ABPP, stronger effect = higher value
LYPLA2 = experiment: as above; settings: gel-based competitive ABPP, stronger effect = higher value
[2] = biological target: Monoglyceride lipase (Mus musculus) (UniProt O35678); experiment: as above; settings: gel-based competitive ABPP, MAGL, stronger effect = higher value
Monoglyceride lipase (Mus musculus), sequence (O35678 whole entry, looked up): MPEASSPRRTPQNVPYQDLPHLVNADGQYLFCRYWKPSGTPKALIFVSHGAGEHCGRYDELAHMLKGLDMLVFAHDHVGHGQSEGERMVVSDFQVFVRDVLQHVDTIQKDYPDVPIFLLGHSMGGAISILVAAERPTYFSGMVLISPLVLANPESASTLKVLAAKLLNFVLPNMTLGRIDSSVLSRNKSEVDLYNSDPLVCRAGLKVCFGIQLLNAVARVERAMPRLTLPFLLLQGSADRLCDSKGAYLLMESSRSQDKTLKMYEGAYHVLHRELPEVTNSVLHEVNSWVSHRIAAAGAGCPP

[3] = biological target: Platelet-activating factor acetylhydrolase (Mus musculus) (UniProt Q60963); experiment: as above; settings: gel-based competitive ABPP, pPAFAH, stronger effect = higher value
Platelet-activating factor acetylhydrolase (Mus musculus), sequence (Q60963 whole entry, looked up): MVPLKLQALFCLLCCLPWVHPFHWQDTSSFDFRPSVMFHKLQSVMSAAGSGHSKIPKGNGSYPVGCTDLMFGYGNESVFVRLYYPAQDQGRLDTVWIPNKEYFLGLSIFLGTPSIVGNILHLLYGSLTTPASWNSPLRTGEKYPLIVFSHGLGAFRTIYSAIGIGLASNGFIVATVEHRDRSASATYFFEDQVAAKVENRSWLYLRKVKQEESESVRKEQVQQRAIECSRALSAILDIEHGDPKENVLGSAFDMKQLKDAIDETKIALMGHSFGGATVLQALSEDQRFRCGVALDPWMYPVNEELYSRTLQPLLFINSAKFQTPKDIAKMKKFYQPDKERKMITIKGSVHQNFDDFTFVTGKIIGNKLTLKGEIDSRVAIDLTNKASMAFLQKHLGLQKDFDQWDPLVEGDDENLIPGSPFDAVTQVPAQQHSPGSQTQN

pPAFAH = experiment: as above; settings: gel-based competitive ABPP, anti-targets inhibited, at 10 µM
MW 30 kDa = experiment: as above; settings: gel-based competitive ABPP, stronger effect = higher value

Cc1cc(N2CCN(C(=O)Oc3ccc(C(F)(F)F)cc3)CC2)c2ccccc2n1
anti-target count ([1]; ABHD3, anti-targets inhibited): 1 | anti-target count ([1]; ABHD4, anti-targets inhibited): 1 | anti-target count ([1]; ABHD6, anti-targets inhibited): 1 | anti-target count ([1]; FAAH, anti-targets inhibited): 1 | anti-target count ([1]; LYPLA1, anti-targets inhibited): 1 | anti-target count ([1]; LYPLA2, anti-targets inhibited): 1 | anti-target count ([1]; MAGL, anti-targets inhibited): 1 | inhibition (ABHD3): 0% (inactive) | inhibition (ABHD4; at 10 µM): 72% (inactive) | inhibition (ABHD4; inhibition, at 0.1 µM): 32% | inhibition (ABHD4; inhibition, at 1 µM): 39% | inhibition (ABHD6; at 10 µM): 0% (inactive) | inhibition (FAAH; at 10 µM): 0% (inactive) | inhibition (LYPLA1; at 10 µM): 0% (inactive) | inhibition (LYPLA2; at 10 µM): 0% (inactive) | inhibition ([2]; at 10 µM): 0% (inactive) | inhibition ([3]; at 10 µM): 93% (inactive) | inhibition ([3]; inhibition, at 0.1 µM): 46% | inhibition ([3]; inhibition, at 1 µM): 87% | anti-target count (pPAFAH): 1

O=C(Oc1noc2cc(Cl)ccc12)N1CCOCC1
anti-target count ([1]; ABHD3, anti-targets inhibited): 3 | anti-target count ([1]; ABHD4, anti-targets inhibited): 3 | anti-target count ([1]; ABHD6, anti-targets inhibited): 3 | anti-target count ([1]; FAAH, anti-targets inhibited): 3 | anti-target count ([1]; LYPLA1, anti-targets inhibited): 3 | anti-target count ([1]; LYPLA2, anti-targets inhibited): 3 | anti-target count ([1]; MAGL, anti-targets inhibited): 3 | inhibition (ABHD3): 0% (inactive) | inhibition (ABHD4; at 10 µM): 0% (inactive) | inhibition (ABHD6; at 10 µM): 66% (inactive) | inhibition (ABHD6; inhibition, at 0.1 µM): 27% | inhibition (ABHD6; inhibition, at 1 µM): 46% | inhibition (FAAH; at 10 µM): 100% | inhibition (FAAH; inhibition, at 0.1 µM): 85% | inhibition (FAAH; inhibition, at 1 µM): 94% | inhibition (LYPLA1; at 10 µM): 0% (inactive) | inhibition (LYPLA2; at 10 µM): 0% (inactive) | inhibition (MW 30 kDa; at 0.1 µM): 24% | inhibition (MW 30 kDa; at 1 µM): 39% | inhibition ([2]; at 10 µM): 26% (inactive) | inhibition ([3]; at 10 µM): 100% | inhibition ([3]; inhibition, at 0.1 µM): 96% | inhibition ([3]; inhibition, at 1 µM): 97% | anti-target count (pPAFAH): 3

O=C(N1CCOCC1)n1oc2cc(Cl)ccc2c1=O
anti-target count ([1]; ABHD3, anti-targets inhibited): 6 | anti-target count ([1]; ABHD4, anti-targets inhibited): 6 | anti-target count ([1]; ABHD6, anti-targets inhibited): 6 | anti-target count ([1]; FAAH, anti-targets inhibited): 6 | anti-target count ([1]; LYPLA1, anti-targets inhibited): 6 | anti-target count ([1]; LYPLA2, anti-targets inhibited): 6 | anti-target count ([1]; MAGL, anti-targets inhibited): 6 | inhibition (ABHD3): 0% (inactive) | inhibition (ABHD4; at 10 µM): 0% (inactive) | inhibition (ABHD6; at 10 µM): 79% (inactive) | inhibition (ABHD6; inhibition, at 0.1 µM): 37% | inhibition (ABHD6; inhibition, at 1 µM): 58% | inhibition (FAAH; at 10 µM): 100% | inhibition (FAAH; inhibition, at 0.1 µM): 83% | inhibition (FAAH; inhibition, at 1 µM): 96% | inhibition (LYPLA1; at 10 µM): 81% (inactive) | inhibition (LYPLA1; inhibition, at 0.1 µM): 17% | inhibition (LYPLA1; inhibition, at 1 µM): 33% | inhibition (LYPLA2; at 10 µM): 54% (inactive) | inhibition (LYPLA2; inhibition, at 0.1 µM): 21% | inhibition (LYPLA2; inhibition, at 1 µM): 33% | inhibition (MW 30 kDa; at 0.1 µM): 31% | inhibition (MW 30 kDa; at 1 µM): 43% | inhibition ([2]; at 10 µM): 68% (inactive) | inhibition ([2]; inhibition, at 0.1 µM): 36% | inhibition ([2]; inhibition, at 1 µM): 53% | inhibition ([3]; at 10 µM): 98% | inhibition ([3]; inhibition, at 0.1 µM): 98% | inhibition ([3]; inhibition, at 1 µM): 98% | anti-target count (pPAFAH): 6

Cc1cc(N2CCN(C(=O)Oc3ccc(-n4cccc4)cc3)CC2)c2ccccc2n1
anti-target count ([1]; ABHD3, anti-targets inhibited): 0 | anti-target count ([1]; ABHD4, anti-targets inhibited): 0 | anti-target count ([1]; ABHD6, anti-targets inhibited): 0 | anti-target count ([1]; FAAH, anti-targets inhibited): 0 | anti-target count ([1]; LYPLA1, anti-targets inhibited): 0 | anti-target count ([1]; LYPLA2, anti-targets inhibited): 0 | anti-target count ([1]; MAGL, anti-targets inhibited): 0 | inhibition (ABHD3): 0% (inactive) | inhibition (ABHD4; at 10 µM): 0% (inactive) | inhibition (ABHD6; at 10 µM): 0% (inactive) | inhibition (FAAH; at 10 µM): 0% (inactive) | inhibition (LYPLA1; at 10 µM): 0% (inactive) | inhibition (LYPLA2; at 10 µM): 0% (inactive) | inhibition ([2]; at 10 µM): 0% (inactive) | inhibition ([3]; at 10 µM): 87% (inactive) | inhibition ([3]; inhibition, at 0.1 µM): 35% | inhibition ([3]; inhibition, at 1 µM): 80% | anti-target count (pPAFAH): 0

Cc1cc(N2CCN(C(=O)Oc3ccc(C4CCCC4)cc3)CC2)c2ccccc2n1
anti-target count ([1]; ABHD3, anti-targets inhibited): 0 | anti-target count ([1]; ABHD4, anti-targets inhibited): 0 | anti-target count ([1]; ABHD6, anti-targets inhibited): 0 | anti-target count ([1]; FAAH, anti-targets inhibited): 0 | anti-target count ([1]; LYPLA1, anti-targets inhibited): 0 | anti-target count ([1]; LYPLA2, anti-targets inhibited): 0 | anti-target count ([1]; MAGL, anti-targets inhibited): 0 | inhibition (ABHD3): 0% (inactive) | inhibition (ABHD4; at 10 µM): 27% (inactive) | inhibition (ABHD6; at 10 µM): 0% (inactive) | inhibition (FAAH; at 10 µM): 0% (inactive) | inhibition (LYPLA1; at 10 µM): 0% (inactive) | inhibition (LYPLA2; at 10 µM): 0% (inactive) | inhibition ([2]; at 10 µM): 0% (inactive) | inhibition ([3]; at 10 µM): 91% (inactive) | inhibition ([3]; inhibition, at 0.1 µM): 28% | inhibition ([3]; inhibition, at 1 µM): 82% | anti-target count (pPAFAH): 0

Cc1cc(N2CCN(C(=O)Oc3ccc(-c4ccccc4)cc3)CC2)c2ccccc2n1
anti-target count ([1]; ABHD3, anti-targets inhibited): 0 | anti-target count ([1]; ABHD4, anti-targets inhibited): 0 | anti-target count ([1]; ABHD6, anti-targets inhibited): 0 | anti-target count ([1]; FAAH, anti-targets inhibited): 0 | anti-target count ([1]; LYPLA1, anti-targets inhibited): 0 | anti-target count ([1]; LYPLA2, anti-targets inhibited): 0 | anti-target count ([1]; MAGL, anti-targets inhibited): 0 | inhibition (ABHD3): 0% (inactive) | inhibition (ABHD4; at 10 µM): 0% (inactive) | inhibition (ABHD6; at 10 µM): 0% (inactive) | inhibition (FAAH; at 10 µM): 0% (inactive) | inhibition (LYPLA1; at 10 µM): 0% (inactive) | inhibition (LYPLA2; at 10 µM): 0% (inactive) | inhibition ([2]; at 10 µM): 0% (inactive) | inhibition ([3]; at 10 µM): 100% | inhibition ([3]; inhibition, at 0.1 µM): 66% | inhibition ([3]; inhibition, at 1 µM): 95% | anti-target count (pPAFAH): 0
